Experimental data published in PMC9729869, “Functional verification and characterization of a type-III geranylgeranyl diphosphate synthase gene from Sporobolomyces pararoseus NGR” (Frontiers in Microbiology, 2022).

Target: T1, CrtE (geranylgeranyl diphosphate synthase, GGPPS) (Sporobolomyces pararoseus, UniProt A0A2P1HA31)
T1 construct: dimer only in the predicted model
Assay: TLC of dephosphorylated product (GGOH)
Format: biochemical

T1 sequence (A0A2P1HA31 1-377): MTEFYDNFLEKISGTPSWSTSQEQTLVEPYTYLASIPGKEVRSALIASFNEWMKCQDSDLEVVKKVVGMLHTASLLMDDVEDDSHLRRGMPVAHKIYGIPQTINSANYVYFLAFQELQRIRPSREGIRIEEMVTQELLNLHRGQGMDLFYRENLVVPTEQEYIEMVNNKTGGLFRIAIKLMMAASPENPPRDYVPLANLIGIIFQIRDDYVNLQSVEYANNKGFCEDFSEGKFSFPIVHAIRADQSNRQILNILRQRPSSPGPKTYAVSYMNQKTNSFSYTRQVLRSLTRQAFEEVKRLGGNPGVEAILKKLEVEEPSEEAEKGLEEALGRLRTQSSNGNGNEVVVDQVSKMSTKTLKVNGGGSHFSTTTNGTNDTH

SMILES | TLC of dephosphorylated product (GGOH) (50 uM IPP with 50 uM allylic co-substrate (FPP, GPP or DMAPP), else same) | TLC of dephosphorylated product (GGOH) (50 uM FPP, 50 uM IPP, 10 ng CrtE in 200 uL, 100 mM HEPES with 5 mM MgCl2 (enzyme exchange buffer) pH 7.5, 28 C, 2 h, Trx/His/S tags kept)
C=C(C)CCOP(=O)(O)OP(=O)(O)O [IPP, isopentenyl diphosphate] | using three different allylic substrates and IPP as substrates for the reaction | –
CC(C)=CCC/C(C)=C/CC/C(C)=C/COP(=O)(O)OP(=O)(O)O [FPP, farnesyl diphosphate] | – | largest number of GGPP was produced using FPP
